# According to patent US20230017045A1, “PYRIDINE AND PYRIMIDINE CARBOXYLATE HERBICIDES AND METHODS OF USE THEREOF” (Dow AgroSciences LLC, priority 2017, published 2023):
# Tested on: test plant species
# Experiment: Post-emergent herbicidal activity test (greenhouse, foliar spray, visual growth reduction)
# Type: in vivo
# Conditions: post-emergence, 336 h, ALOMY: blackgrass (Alopecurus myosuroides), 140 g ai/ha, 14 days after application, read-out: Visual Growth Reduction (%) 14 Days After Application, ALOMY
# Outline: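 Visual percent injury (0-100) rated 14 d after treatment, relative to nontreated and solvent-blank plants. Test plants at first or second true leaf stage received an overhead track-sprayer application at 187 L/ha. Compounds were formulated in aqueous acetone/DMSO carrier containing crop oil concentrate and X-77 surfactant.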
row,Structure (SMILES),pest or weed control at 140 g/ha [%]
1,"COC(=O)c1nc(-c2ccc(C(F)(F)F)nc2Cl)ccc1Cl [F8, Methyl 2′,5-dichloro-6′-(trifluoromethyl)-[2,3′-bipyridine]-6-carboxylate]",0 to 29
2,"COC(=O)c1nc(-c2ccc(C(F)(F)F)cc2Cl)ccc1Br [F32, Methyl 3-bromo-6-(2-chloro-4-(trifluoromethyl)yl)picolinate]",0 to 29

# Same assay, conditions: post-emergence, 336 h, AMARE: redroot pigweed (Amaranthus retroflexus), 140 g ai/ha, 14 days after application, read-out: Visual Growth Reduction (%) 14 Days After Application, AMARE
row,Structure (SMILES),pest or weed control at 140 g/ha [%]
1,"COC(=O)c1nc(-c2ccc(C(F)(F)F)nc2Cl)ccc1Cl [F8, Methyl 2′,5-dichloro-6′-(trifluoromethyl)-[2,3′-bipyridine]-6-carboxylate]",95 to 100
2,"COC(=O)c1nc(-c2ccc(C(F)(F)F)cc2Cl)ccc1Br [F32, Methyl 3-bromo-6-(2-chloro-4-(trifluoromethyl)yl)picolinate]",60 to 74

# Same assay, conditions: post-emergence, 336 h, AVEFA: wild oat (Avena fatua), 140 g ai/ha, 14 days after application, read-out: Visual Growth Reduction (%) 14 Days After Application, AVEFA
row,Structure (SMILES),pest or weed control at 140 g/ha [%]
1,"COC(=O)c1nc(-c2ccc(C(F)(F)F)nc2Cl)ccc1Cl [F8, Methyl 2′,5-dichloro-6′-(trifluoromethyl)-[2,3′-bipyridine]-6-carboxylate]",0 to 29
2,"COC(=O)c1nc(-c2ccc(C(F)(F)F)cc2Cl)ccc1Br [F32, Methyl 3-bromo-6-(2-chloro-4-(trifluoromethyl)yl)picolinate]",0 to 29

# Same assay, conditions: post-emergence, 336 h, CHEAL: lambsquarters (Chenopodium album), 140 g ai/ha, 14 days after application, read-out: Visual Growth Reduction (%) 14 Days After Application, CHEAL
row,Structure (SMILES),pest or weed control at 140 g/ha [%]
1,"COC(=O)c1nc(-c2ccc(C(F)(F)F)nc2Cl)ccc1Cl [F8, Methyl 2′,5-dichloro-6′-(trifluoromethyl)-[2,3′-bipyridine]-6-carboxylate]",95 to 100
2,"COC(=O)c1nc(-c2ccc(C(F)(F)F)cc2Cl)ccc1Br [F32, Methyl 3-bromo-6-(2-chloro-4-(trifluoromethyl)yl)picolinate]",60 to 74

# Same assay, conditions: post-emergence, 336 h, CIRAR: canada thistle (Cirsium arvense), 140 g ai/ha, 14 days after application, read-out: Visual Growth Reduction (%) 14 Days After Application, CIRAR
row,Structure (SMILES),pest or weed control at 140 g/ha [%]
1,"COC(=O)c1nc(-c2ccc(C(F)(F)F)nc2Cl)ccc1Cl [F8, Methyl 2′,5-dichloro-6′-(trifluoromethyl)-[2,3′-bipyridine]-6-carboxylate]",85 to 94
2,"COC(=O)c1nc(-c2ccc(C(F)(F)F)cc2Cl)ccc1Br [F32, Methyl 3-bromo-6-(2-chloro-4-(trifluoromethyl)yl)picolinate]",75 to 84

# Same assay, conditions: post-emergence, 336 h, CYPES: yellow nutsedge (Cyperus esculentus), 140 g ai/ha, 14 days after application, read-out: Visual Growth Reduction (%) 14 Days After Application, CYPES
row,Structure (SMILES),pest or weed control at 140 g/ha [%]
1,"COC(=O)c1nc(-c2ccc(C(F)(F)F)nc2Cl)ccc1Cl [F8, Methyl 2′,5-dichloro-6′-(trifluoromethyl)-[2,3′-bipyridine]-6-carboxylate]",45 to 59
2,"COC(=O)c1nc(-c2ccc(C(F)(F)F)cc2Cl)ccc1Br [F32, Methyl 3-bromo-6-(2-chloro-4-(trifluoromethyl)yl)picolinate]",0 to 29

# Same assay, conditions: post-emergence, 336 h, DIGSA: crabgrass (Digitaria sanguinalis), 140 g ai/ha, 14 days after application, read-out: Visual Growth Reduction (%) 14 Days After Application, DIGSA
row,Structure (SMILES),pest or weed control at 140 g/ha [%]
1,"COC(=O)c1nc(-c2ccc(C(F)(F)F)nc2Cl)ccc1Cl [F8, Methyl 2′,5-dichloro-6′-(trifluoromethyl)-[2,3′-bipyridine]-6-carboxylate]",60 to 74
2,"COC(=O)c1nc(-c2ccc(C(F)(F)F)cc2Cl)ccc1Br [F32, Methyl 3-bromo-6-(2-chloro-4-(trifluoromethyl)yl)picolinate]",60 to 74

# Same assay, conditions: post-emergence, 336 h, ECHCG: barnyardgrass (Echinochloa crus-galli), 140 g ai/ha, 14 days after application, read-out: Visual Growth Reduction (%) 14 Days After Application, ECHCG
row,Structure (SMILES),pest or weed control at 140 g/ha [%]
1,"COC(=O)c1nc(-c2ccc(C(F)(F)F)cc2Cl)ccc1Br [F32, Methyl 3-bromo-6-(2-chloro-4-(trifluoromethyl)yl)picolinate]",0 to 29

# Same assay, conditions: post-emergence, 336 h, IPOHE: ivy-leaf morning glory (Ipomoea hederacea), 140 g ai/ha, 14 days after application, read-out: Visual Growth Reduction (%) 14 Days After Application, IPOHE
row,Structure (SMILES),pest or weed control at 140 g/ha [%]
1,"COC(=O)c1nc(-c2ccc(C(F)(F)F)cc2Cl)ccc1Br [F32, Methyl 3-bromo-6-(2-chloro-4-(trifluoromethyl)yl)picolinate]",95 to 100

# Same assay, conditions: post-emergence, 336 h, KCHSC: kochia (Bassia scoparia), 140 g ai/ha, 14 days after application, read-out: Visual Growth Reduction (%) 14 Days After Application, KCHSC
row,Structure (SMILES),pest or weed control at 140 g/ha [%]
1,"COC(=O)c1nc(-c2ccc(C(F)(F)F)cc2Cl)ccc1Br [F32, Methyl 3-bromo-6-(2-chloro-4-(trifluoromethyl)yl)picolinate]",45 to 59

# Same assay, conditions: post-emergence, 336 h, ORYSA: rice (Oryza sativa), 140 g ai/ha, 14 days after application, read-out: Visual Growth Reduction (%) 14 Days After Application, ORYSA
row,Structure (SMILES),pest or weed control at 140 g/ha [%]
1,"COC(=O)c1nc(-c2ccc(C(F)(F)F)cc2Cl)ccc1Br [F32, Methyl 3-bromo-6-(2-chloro-4-(trifluoromethyl)yl)picolinate]",0 to 29

# Same assay, conditions: post-emergence, 336 h, SETFA: giant foxtail (Setaria faberi), 140 g ai/ha, 14 days after application, read-out: Visual Growth Reduction (%) 14 Days After Application, SETFA
row,Structure (SMILES),pest or weed control at 140 g/ha [%]
1,"COC(=O)c1nc(-c2ccc(C(F)(F)F)cc2Cl)ccc1Br [F32, Methyl 3-bromo-6-(2-chloro-4-(trifluoromethyl)yl)picolinate]",30 to 44

# Same assay, conditions: post-emergence, 336 h, SORVU: grain sorghum (Sorghum vulgare), 140 g ai/ha, 14 days after application, read-out: Visual Growth Reduction (%) 14 Days After Application, SORVU
row,Structure (SMILES),pest or weed control at 140 g/ha [%]
1,"COC(=O)c1nc(-c2ccc(C(F)(F)F)cc2Cl)ccc1Br [F32, Methyl 3-bromo-6-(2-chloro-4-(trifluoromethyl)yl)picolinate]",85 to 94

# Same assay, conditions: post-emergence, 336 h, STEME: common chickweed (Stellaria media), 140 g ai/ha, 14 days after application, read-out: Visual Growth Reduction (%) 14 Days After Application, STEME
row,Structure (SMILES),pest or weed control at 140 g/ha [%]
1,"COC(=O)c1nc(-c2ccc(C(F)(F)F)cc2Cl)ccc1Br [F32, Methyl 3-bromo-6-(2-chloro-4-(trifluoromethyl)yl)picolinate]",0 to 29

# Same assay, conditions: post-emergence, 336 h, TRZAS: wheat, spring (Triticum aestivum), 140 g ai/ha, 14 days after application, read-out: Visual Growth Reduction (%) 14 Days After Application, TRZAS
row,Structure (SMILES),pest or weed control at 140 g/ha [%]
1,"COC(=O)c1nc(-c2ccc(C(F)(F)F)cc2Cl)ccc1Br [F32, Methyl 3-bromo-6-(2-chloro-4-(trifluoromethyl)yl)picolinate]",0 to 29

# Same assay, conditions: post-emergence, 336 h, barnyardgrass (Echinochloa crus-galli), 14 Days After Application, 140 g ai/ha, read-out: Visual Growth Reduction (%) ECHCG
row,Structure (SMILES),pest or weed control at 140 g/ha [%]
1,"COC(=O)c1nc(-c2ccc(C(F)(F)F)nc2Cl)ccc1Cl [F8, Methyl 2′,5-dichloro-6′-(trifluoromethyl)-[2,3′-bipyridine]-6-carboxylate]",30 to 44

# Same assay, conditions: post-emergence, 336 h, common chickweed (Stellaria media), 14 Days After Application, 140 g ai/ha, read-out: Visual Growth Reduction (%) STEME
row,Structure (SMILES),pest or weed control at 140 g/ha [%]
1,"COC(=O)c1nc(-c2ccc(C(F)(F)F)nc2Cl)ccc1Cl [F8, Methyl 2′,5-dichloro-6′-(trifluoromethyl)-[2,3′-bipyridine]-6-carboxylate]",0 to 29

# Same assay, conditions: post-emergence, 336 h, giant foxtail (Setaria faberi), 14 Days After Application, 140 g ai/ha, read-out: Visual Growth Reduction (%) SETFA
row,Structure (SMILES),pest or weed control at 140 g/ha [%]
1,"COC(=O)c1nc(-c2ccc(C(F)(F)F)nc2Cl)ccc1Cl [F8, Methyl 2′,5-dichloro-6′-(trifluoromethyl)-[2,3′-bipyridine]-6-carboxylate]",0 to 29

# Same assay, conditions: post-emergence, 336 h, ivy-leaf morning glory (Ipomoea hederacea), 14 Days After Application, 140 g ai/ha, read-out: Visual Growth Reduction (%) IPOHE
row,Structure (SMILES),pest or weed control at 140 g/ha [%]
1,"COC(=O)c1nc(-c2ccc(C(F)(F)F)nc2Cl)ccc1Cl [F8, Methyl 2′,5-dichloro-6′-(trifluoromethyl)-[2,3′-bipyridine]-6-carboxylate]",95 to 100

# Same assay, conditions: post-emergence, 336 h, johnsongrass (Sorghum vulgare), 14 Days After Application, 140 g ai/ha, read-out: Visual Growth Reduction (%) SORVU
row,Structure (SMILES),pest or weed control at 140 g/ha [%]
1,"COC(=O)c1nc(-c2ccc(C(F)(F)F)nc2Cl)ccc1Cl [F8, Methyl 2′,5-dichloro-6′-(trifluoromethyl)-[2,3′-bipyridine]-6-carboxylate]",85 to 94

# Same assay, conditions: post-emergence, 336 h, kochia (Bassia scoparia), 14 Days After Application, 140 g ai/ha, read-out: Visual Growth Reduction (%) KCHSC
row,Structure (SMILES),pest or weed control at 140 g/ha [%]
1,"COC(=O)c1nc(-c2ccc(C(F)(F)F)nc2Cl)ccc1Cl [F8, Methyl 2′,5-dichloro-6′-(trifluoromethyl)-[2,3′-bipyridine]-6-carboxylate]",85 to 94

# Same assay, conditions: post-emergence, 336 h, rice (Oryza sativa), 14 Days After Application, 140 g ai/ha, read-out: Visual Growth Reduction (%) ORYSA
row,Structure (SMILES),pest or weed control at 140 g/ha [%]
1,"COC(=O)c1nc(-c2ccc(C(F)(F)F)nc2Cl)ccc1Cl [F8, Methyl 2′,5-dichloro-6′-(trifluoromethyl)-[2,3′-bipyridine]-6-carboxylate]",0 to 29

# Same assay, conditions: post-emergence, 336 h, wheat, spring (Triticum aestivum), 14 Days After Application, 140 g ai/ha, read-out: Visual Growth Reduction (%) TRZAS
row,Structure (SMILES),pest or weed control at 140 g/ha [%]
1,"COC(=O)c1nc(-c2ccc(C(F)(F)F)nc2Cl)ccc1Cl [F8, Methyl 2′,5-dichloro-6′-(trifluoromethyl)-[2,3′-bipyridine]-6-carboxylate]",30 to 44
